As usually defined, the IC50 is the point on the concentration scale where inhibition reaches its midpoint.

We go through 37 compounds from patent publication US9981944B2, “GDF-8 inhibitors” (Rigel Pharmaceuticals, Inc., priority 2015, dated 2018).

The target in experiment [1] is HIS-TGFβR1 T204D (Homo sapiens (Human), UniProt P36897, T204D). The experiment can be described thus: HTRF probe displacement assay, HIS-TGFβR1 T204D. It is filed as binding. The following applies: 1 nM HIS-TGFβR1 T204D, 1 hour at room temperature, read-out: TGFBR1T204D IC50. How it is done: (§1) Compounds were dissolved at 10 mM in dimethylsulfoxide (DMSO) and evaluated at eleven concentrations. IC50 values were derived by non-linear regression analysis.
(In general: In TR-FRET formats the signal depends on donor and acceptor labels being close together.)

The target in experiment [2] is HIS-TGFβR2 WT (Homo sapiens (Human), UniProt P37173). In words: HTRF probe displacement assay, HIS-TGFβR2 WT. The settings on record: 1 nM HIS-TGFβR2 WT, 1 hour at room temperature, read-out: TGFBR2WT IC50. It is filed as binding. The procedure: as §1
Chain of HIS-TGFβR2 WT (P37173 23-567): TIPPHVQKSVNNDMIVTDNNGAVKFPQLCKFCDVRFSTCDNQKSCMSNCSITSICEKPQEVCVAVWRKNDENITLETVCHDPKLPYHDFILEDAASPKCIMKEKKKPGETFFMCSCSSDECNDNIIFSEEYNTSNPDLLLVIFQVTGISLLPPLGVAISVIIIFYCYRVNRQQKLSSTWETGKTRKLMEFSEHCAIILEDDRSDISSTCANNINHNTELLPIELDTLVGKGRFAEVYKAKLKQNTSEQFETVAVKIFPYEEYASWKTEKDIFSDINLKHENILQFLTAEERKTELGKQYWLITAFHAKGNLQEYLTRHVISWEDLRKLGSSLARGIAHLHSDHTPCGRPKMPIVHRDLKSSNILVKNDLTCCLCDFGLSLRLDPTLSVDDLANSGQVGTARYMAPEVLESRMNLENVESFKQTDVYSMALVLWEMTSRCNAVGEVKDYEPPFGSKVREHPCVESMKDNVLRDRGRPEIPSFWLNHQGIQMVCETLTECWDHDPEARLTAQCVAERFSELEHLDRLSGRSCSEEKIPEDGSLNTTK

Chain of HIS-TGFβR1 T204D (P36897 34-503 T204D): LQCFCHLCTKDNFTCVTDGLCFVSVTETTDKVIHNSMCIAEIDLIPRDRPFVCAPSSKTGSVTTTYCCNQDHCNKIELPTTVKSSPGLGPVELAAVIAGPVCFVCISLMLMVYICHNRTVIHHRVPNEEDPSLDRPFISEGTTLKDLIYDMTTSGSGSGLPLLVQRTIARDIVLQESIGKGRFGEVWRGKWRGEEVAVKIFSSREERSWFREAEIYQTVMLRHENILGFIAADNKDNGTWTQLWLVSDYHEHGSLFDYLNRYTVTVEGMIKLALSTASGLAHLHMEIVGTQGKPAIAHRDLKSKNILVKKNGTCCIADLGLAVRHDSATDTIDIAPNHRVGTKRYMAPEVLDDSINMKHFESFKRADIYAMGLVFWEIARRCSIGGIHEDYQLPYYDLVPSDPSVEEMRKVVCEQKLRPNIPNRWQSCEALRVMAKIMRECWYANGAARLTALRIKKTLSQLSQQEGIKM

For `COC(=O)c1ccc(-c2ncccc2-c2ccc3ncc(C(N)=O)n3c2)nc1` [Compound 26, methyl 3′-(3-carbamoylimidazo[1,2-a]pyridin-6-yl)-[2,2′-bipyridine]-5-carboxylate], the concentration for half-maximal inhibition (IC50) in experiment [1] is 7650 nM; in experiment [2], > 15 µM.
As for `N#Cc1cnn2ccc(-c3cccnc3-c3cccc(C(F)(F)F)n3)nc12` [Compound 121, 5-(6′-(trifluoromethyl)-[2,2′-bipyridin]-3-yl)pyrazolo[1,5-a]pyrimidine-3-carbonitrile], the IC50 in experiment [1] is 854 nM; in experiment [2], > 15 µM.
In the case of `CC(=O)Nc1ccnc(-c2cccc(C)n2)c1-c1ccc2ncc(C#N)n2c1` [Compound 100, N-(3-(3-cyanoimidazo[1,2-a]pyridin-6-yl)-6′-methyl-[2,2′-bipyridin]-4-yl)acetamide], the IC50 in experiment [1] is 11100 nM; in experiment [2], > 15 µM.
The matching figures for `Cc1nc(-c2ncccc2-c2ccc3nc(C(N)=O)cn3c2)ccc1F` [Compound 78, 6-(5′-fluoro-6′-methyl-[2,2′-bipyridin]-3-yl)imidazo[1,2-a]pyridine-2-carboxamide]: 15000 nM and > 15 µM.
`Cc1cccc(-c2nccc(C(F)F)c2-c2ccc3ncc(C(N)=O)n3c2)n1` [Compound 94, 6-(4-(difluoromethyl)-6′-methyl-[2,2′-bipyridin]-3-yl)imidazo[1,2-a]pyridine-3-carboxamide]: the IC50 is 15000 nM in experiment [1] and > 15 µM in experiment [2].
As to `Cc1cccc(-c2ncccc2-c2ccc3ncc(C#N)n3n2)n1` [Compound 57, 6-(6′-methyl-[2, 2′-bipyridin]-3-yl) imidazo[1,2-b]pyridazine-3-carbonitrile], the IC50 in experiment [1] is 35 nM; in experiment [2] it was > 15 µM.
The matching figures for `Cc1nc(-c2ncccc2-c2ccn3ncc(C(=O)NC4COC4)c3n2)ccc1F` [Compound 133, 5-(5′-fluoro-6′-methyl-[2,2′-bipyridin]-3-yl)-N-(oxetan-3-yl)pyrazolo[1,5-a]pyrimidine-3-carboxamide]: 24 nM and > 15 µM.
Take `CC(=O)Nc1cn2cc(-c3cccnc3-c3cccc(C)n3)ccc2n1` [Compound 76, N-(6-(6′-methyl-[2,2′-bipyridin]-3-yl)imidazo[1,2-a]pyridin-2-yl)acetamide]: the IC50 is 1 nM in experiment [1] and > 15 µM in experiment [2].
With `Cc1cccc(-c2nc(C(F)(F)F)ccc2-c2ccc3ncc(C(N)=O)n3c2)n1` [Compound 90, 6-(6′-methyl-6-(trifluoromethyl)-[2,2′-bipyridin]-3-yl)imidazo[1,2-a]pyridine-3-carboxamide], the values for the IC50 in experiment [1] and in experiment [2] were 84 nM and > 15 µM, respectively.
The matching figures for `CS(=O)(=O)Nc1cccc(-c2ncccc2-c2ccc3ncc(C#N)n3c2)n1` [Compound 44, N-(3′-(3-cyanoimidazo[1,2-a]pyridin-6-yl)-[2,2′-bipyridin]-6-yl)methanesulfonamide]: 1980 nM and > 15 µM.
In the case of `Cc1nc(-c2ncccc2-c2ccc3ncc(C#N)n3n2)ccc1F` [Compound 61, 6-(5′-fluoro-6′-methyl-[2,2′-bipyridin]-3-yl)imidazo[1,2-b]pyridazine-3-carbonitrile], the IC50 in experiment [1] is 32 nM; in experiment [2], > 15 µM.
The matching figures for `Nc1ncnc2ccc(-c3cccnc3-c3cccc(C(F)F)n3)cc12` [Compound 109, 6-(6′-(difluoromethyl)-[2,2′-bipyridin]-3-yl)quinazolin-4-amine]: 2 nM and > 15 µM.
The matching figures for `CC(=O)Nc1ccnc(-c2cccc(C)n2)c1-c1ccc2ncc(C(N)=O)n2c1` [Compound 102, 6-(4-acetamido-6′-methyl-[2,2′-bipyridin]-3-yl)imidazo[1,2-a]pyridine-3-carboxamide]: 716 nM and > 15 µM.
For `CC(C)(O)c1cccc(-c2ncccc2-c2ccc3ncc(C#N)n3c2)n1` [Compound 41], the IC50 in experiment [1] was 15000 nM; in experiment [2] it was > 15 µM.
The matching figures for `Cc1cccc(-c2ncc(F)cc2-c2ccc3ncc(C#N)n3c2)n1` [Compound 81, 6-(5-fluoro-6′-methyl-[2,2′-bipyridin]-3-yl)imidazo[1,2-a]pyridine-3-carbonitrile]: 16 nM and > 15 µM.
The matching figures for `N#Cc1cnc2ccc(-c3cccnc3-c3cccc(OCc4ccccc4)n3)cn12` [Compound 38, 6-(6′-(benzyloxy)-[2,2′-bipyridin]-3-yl)imidazo[1,2-a]pyridine-3-carbonitrile]: 1920 nM and > 15 µM.
As for `CC(=O)Nc1cnc(-c2cccc(C)n2)c(-c2ccc3ncc(C(N)=O)n3c2)c1` [Compound 97, 6-(5-acetamido-6′-methyl-[2,2′-bipyridin]-3-yl)imidazo[1,2-a]pyridine-3-carboxamide], the IC50 in experiment [1] worked out at 5 nM.
Consider `NC(=O)c1cnc2ccc(-c3cccnc3-c3cc(F)ccn3)nn12` [Compound 60, 6-(4′-fluoro-[2,2′-bipyridin]-3-yl)imidazo[1,2-b]pyridazine-3-carboxamide], for which the IC50 in experiment [1] is 161 nM; in experiment [2] it was > 15 µM.
The matching figures for `Cc1cccc(-c2nc(C)ccc2-c2ccc3ncc(C(N)=O)n3c2)n1` [Compound 87]: 15 nM and > 15 µM.
The matching figures for `NC(=O)c1cnc2ccc(-c3cccnc3-c3cccc(C(F)F)n3)nn12` [Compound 52, 6-(6′-(difluoromethyl)-[2,2′-bipyridin]-3-yl)imidazo[1,2-b]pyridazine-3-carboxamide]: 30 nM and > 15 µM.
The matching figures for `CC(=O)Nc1cccc(-c2ncccc2-c2ccc3ncc(C#N)n3c2)n1` [Compound 45, N-(3′-(3-cyanoimidazo[1,2-a]pyridin-6-yl)-[2,2′-bipyridin]-6-yl)acetamide]: 907 nM and > 15 µM.
Turning to `Cc1nc(-c2ncccc2-c2ccc3nccnc3c2)ccc1F` [Compound 112, 6-(5′-fluoro-6′-methyl-[2,2′-bipyridin]-3-yl)quinoxaline], the IC50 in experiment [1] was 12 nM; in experiment [2] it was > 15 µM.
Consider `COC(=O)c1ccc(-c2ncccc2-c2ccc3ncc(C#N)n3c2)nc1` [Compound 25, methyl 3′-(3-cyanoimidazo[1,2-a]pyridin-6-yl)-[2,2′-bipyridine]-5-carboxylate], for which the IC50 in experiment [1] was 4480 nM; in experiment [2], > 15 µM.
The matching figures for `Fc1ccc(-c2ncccc2-c2ccc3[nH]ncc3c2)nc1` [Compound 116, 5-(5′-fluoro-[2,2′-bipyridin]-3-yl)-1H-indazole]: 14 nM and > 15 µM.
For the compound `Cc1cccc(-c2ncccc2-c2ccc3ncc(C(=O)NCC(F)F)n3c2)n1` [Compound 68, N-(2,2-difluoroethyl)-6-(6′-methyl-[2,2′-bipyridin]-3-yl)imidazo[1,2-a]pyridine-3-carboxamide], the IC50 in experiment [1] was 4 nM; in experiment [2], > 15 µM.
Take `Cc1nc(-c2ncc(F)cc2-c2ccc3ncc(C(N)=O)n3c2)ccc1F` [Compound 85, 6-(5,5′-difluoro-6′-methyl-[2,2′-bipyridin]-3-yl)imidazo[1,2-a]pyridine-3-carboxamide]: the IC50 in experiment [1] was 2 nM.
As for `NC(=O)c1cnc2ccc(-c3cccnc3-c3cc(F)ccn3)cn12` [Compound 22, 6-(4′-fluoro-[2,2′-bipyridin]-3-yl)imidazo[1,2-a]pyridine-3-carboxamide], in experiment [1], the IC50 turned out to be 5 nM.
Turning to `NC(=O)c1cnc2ccc(-c3cccnc3-c3ccc(F)c(C(F)F)n3)cn12` [Compound 24, 6-(6′-(difluoromethyl)-5′-fluoro-[2,2′-bipyridin]-3-yl)imidazo[1,2-a]pyridine-3-carboxamide], the IC50 in experiment [2] was > 15 µM.
On to `Cc1cccc(-c2ncc(N)cc2-c2ccc3ncc(C(=O)O)n3c2)n1` [Compound 99, 6-(5-amino-6′-methyl-[2,2′-bipyridin]-3-yl)imidazo[1,2-a]pyridine-3-carboxylic acid], for which the IC50 in experiment [1] is 4 nM.
Same read-out and setting: in the case of `COc1cccc(-c2ncccc2-c2ccc3ncc(C(N)=O)n3c2)n1` [Compound 33, 6-(6′-methoxy-[2,2′-bipyridin]-3-yl)imidazo[1,2-a]pyridine-3-carboxamide] it was 1 nM.
Still for that read-out and setting: in the case of `Cc1cccc(-c2ncc(F)cc2-c2ccc3ncc(C(N)=O)n3c2)n1` [Compound 82, 6-(5-fluoro-6′-methyl-[2,2′-bipyridin]-3-yl)imidazo[1,2-a]pyridine-3-carboxamide] it was 1 nM.
`Cc1nc(-c2ncccc2-c2ccc3ncc(C(N)=O)n3c2)ccc1F` [Compound 19, 6-(5′-fluoro-6′-methyl-[2,2′-bipyridin]-3-yl)imidazo[1,2-a]pyridine-3-carboxamide]: the IC50 in experiment [1] amounted to 1 nM.
Same read-out and setting: under `Cc1cccc(-c2ncc(N)cc2-c2ccc3ncc(C(N)=O)n3c2)n1` [Compound 98, 6-(5-amino-6′-methyl-[2,2′-bipyridin]-3-yl)imidazo[1,2-a]pyridine-3-carboxamide] stands 2 nM.
Consider `CCc1cccc(-c2ncccc2-c2ccc3ncc(C#N)n3c2)n1` [Compound 30, 6-(6′-ethyl-[2,2′-bipyridin]-3-yl)imidazo[1,2-a]pyridine-3-carbonitrile], for which the IC50 in experiment [2] was > 15 µM.
Regarding `NC(=O)c1cnc2ccc(-c3cccnc3-c3ccc(F)cn3)cn12` [Compound 21, 6-(5′-fluoro-[2,2′-bipyridin]-3-yl)imidazo[1,2-a]pyridine-3-carboxamide], in experiment [1], the IC50 stood at 5 nM.
The same measure, in the same setting: under `NC(=O)c1cnc2ccc(-c3cccnc3-c3cccc(F)n3)cn12` [Compound 37, 6-(6′-fluoro-[2,2′-bipyridin]-3-yl)imidazo[1,2-a]pyridine-3-carboxamide] stands 4 nM; under `NC(=O)c1cnc2ccc(-c3cccnc3-c3ccccn3)cn12` [Compound 39, 6-([2,2′-bipyridin]-3-yl)imidazo[1,2-a]pyridine-3-carboxamide], 6 nM.
